Tests used:
[1] = Compound was tested for the competitive inhibition against mouse brain N-Myristoyltransferase; type: tissue-based
[2] = Michaelis-Menten constant against myristoyl CoA was determined in mouse; type: organism-based

- Ki [1]: 24 nM
- Km [2]: 0.4 µM
SMILES: CCCCCCCCCCCCCC(=O)CSCCNC(=O)CCNC(=O)C(O)C(C)(C)COP(=O)(O)OP(=O)(O)OC[C@H]1O[C@@H](n2cnc3c(N)ncnc32)[C@H](O)[C@@H]1OP(=O)(O)O (some centres not stated)
